Experimental data published in ChEMBL document CHEMBL4431341, “Synthesis and anticancer activity of a hydroxytolan series” (Bioorg Med Chem Lett, 2016).
Calls of active or inactive are those of the source. No cut-off for these calls is given here.

Columns and labels:
DU-145 [1] = assay: Cytotoxicity against human DU145 cells after 24 hrs by MTT assay; format: functional; conditions: DU-145, 24 h, read-out: CD50 (the source's name)
T-24 [2] = assay: Cytotoxicity against human T24 cells after 24 hrs by MTT assay; format: functional; conditions: T-24, 24 h, read-out: CD50 (the source's name)
MDAH 2774 [3] = assay: Cytotoxicity against human MDAH 2774 cells after 24 hrs by MTT assay; format: functional; conditions: MDAH 2774, 24 h, read-out: CD50 (the source's name)
[4] = Cytotoxicity against human MHRF cells after 24 hrs by MTT assay; format: cell-based; conditions: read-out: CD50
DU-145 [5] = assay: Cytotoxicity against human DU145 cells after 48 hrs by MTT assay; format: functional; conditions: DU-145, 48 h, read-out: CD50 (the source's name)
T-24 [6] = assay: Cytotoxicity against human T24 cells after 48 hrs by MTT assay; format: functional; conditions: T-24, 48 h, read-out: CD50 (the source's name)
MDAH 2774 [7] = assay: Cytotoxicity against human MDAH 2774 cells after 48 hrs by MTT assay; format: functional; conditions: MDAH 2774, 48 h, read-out: CD50 (the source's name)
[8] = Cytotoxicity against human MHRF cells after 48 hrs by MTT assay; format: cell-based; conditions: read-out: CD50
DU-145 [9] = assay: Cytotoxicity against human DU145 cells after 72 hrs by MTT assay; format: functional; conditions: DU-145, 72 h, read-out: CD50 (the source's name)
T-24 [10] = assay: Cytotoxicity against human T24 cells after 72 hrs by MTT assay; format: functional; conditions: T-24, 72 h, read-out: CD50 (the source's name)
MDAH 2774 [11] = assay: Cytotoxicity against human MDAH 2774 cells after 72 hrs by MTT assay; format: functional; conditions: MDAH 2774, 72 h, read-out: CD50 (the source's name)
[12] = Cytotoxicity against human MHRF cells after 72 hrs by MTT assay; format: cell-based; conditions: read-out: CD50
DU-145 [13] = assay: Pro-oxidative activity in human DU145 cells assessed as increase in H2O2 mediated DCF formation at 25 to 100 uM preincubated with DCFH-DA for 30 mins followed by compound treatment for 3 hrs by fluorescence analysis; format: functional, cell-based
DU-145 [14] = assay: Cytotoxicity against human DU145 cells assessed as inhibition of cell viability at 2 to 500 uM after 24 hrs by MTT assay; format: functional, cell-based
DU-145 [15] = assay: Cytotoxicity against human DU145 cells assessed as inhibition of cell viability at 2 to 500 uM after 24 hrs in presence of CAT by MTT assay; format: functional, cell-based
[16] = Lipophilicity, log P of the compound; format: physicochemical; conditions: octanol/water
DU-145 [17] = assay: Potency index, ratio of CD50 for RES to CD50 for test compound against human DU145 cells after 24 hrs; format: functional
T-24 [18] = assay: Potency index, ratio of CD50 for RES to CD50 for test compound against human T24 cells after 24 hrs; format: functional
MDAH 2774 [19] = assay: Potency index, ratio of CD50 for RES to CD50 for test compound against human MDAH 2774 cells after 24 hrs; format: functional
[20] = Ratio of CD50 for test compound to CD50 for RES against human MHRF cells after 24 hrs; format: ADME, cell-based
DU-145 [21] = assay: Potency index, ratio of CD50 for RES to CD50 for test compound against human DU145 cells after 48 hrs; format: functional
T-24 [22] = assay: Potency index, ratio of CD50 for RES to CD50 for test compound against human T24 cells after 48 hrs; format: functional
MDAH 2774 [23] = assay: Potency index, ratio of CD50 for RES to CD50 for test compound against human MDAH 2774 cells after 48 hrs; format: functional
[24] = Ratio of CD50 for test compound to CD50 for RES against human MHRF cells after 48 hrs; format: ADME, cell-based
DU-145 [25] = assay: Potency index, ratio of CD50 for RES to CD50 for test compound against human DU145 cells after 72 hrs; format: functional
T-24 [26] = assay: Potency index, ratio of CD50 for RES to CD50 for test compound against human T24 cells after 72 hrs; format: functional
MDAH 2774 [27] = assay: Potency index, ratio of CD50 for RES to CD50 for test compound against human MDAH 2774 cells after 72 hrs; format: functional
[28] = Ratio of CD50 for test compound to CD50 for RES against human MHRF cells after 72 hrs; format: ADME, cell-based
[29] = Selectivity index, ratio of CD50 against human MHRF cells to CD50 for human DU145 cells after 24 hrs
[30] = Selectivity index, ratio of CD50 against human MHRF cells to CD50 for human T24 cells after 24 hrs
[31] = Selectivity index, ratio of CD50 against human MHRF cells to CD50 for human MDAH 2774 cells after 24 hrs
[32] = Selectivity index, ratio of CD50 against human MHRF cells to CD50 for human DU145 cells after 48 hrs
[33] = Selectivity index, ratio of CD50 against human MHRF cells to CD50 for human T24 cells after 48 hrs
[34] = Selectivity index, ratio of CD50 against human MHRF cells to CD50 for human MDAH 2774 cells after 48 hrs
[35] = Selectivity index, ratio of CD50 against human MHRF cells to CD50 for human DU145 cells after 72 hrs
[36] = Selectivity index, ratio of CD50 against human MHRF cells to CD50 for human T24 cells after 72 hrs
[37] = Selectivity index, ratio of CD50 against human MHRF cells to CD50 for human MDAH 2774 cells after 72 hrs

Row | logP [16] | Compound | CC50 (DU-145 [1]) [µM] | CC50 (T-24 [2]) [µM] | CC50 (MDAH 2774 [3]) [µM] | CC50 at 24 h [4] [µM] | CC50 (DU-145 [5]) [µM] | CC50 (T-24 [6]) [µM] | CC50 (MDAH 2774 [7]) [µM] | CC50 at 48 h [8] [µM] | CC50 (DU-145 [9]) [µM] | CC50 (T-24 [10]) [µM] | CC50 (MDAH 2774 [11]) [µM] | CC50 at 72 h [12] [µM] | Ratio (DU-145 [17]) | Ratio (T-24 [18]) | Ratio (MDAH 2774 [19]) | selectivity ratio at 24 h [20] | Ratio (DU-145 [21]) | Ratio (T-24 [22]) | Ratio (MDAH 2774 [23]) | also measured
1 | 1.85 | Oc1ccc(/C=C/c2cc(O)cc(O)c2)cc1 [RESVERATROL] | 92.2 | 210 | 36.9 | 155 | 58.2 | 61.8 | 23 | 50.9 | 27.9 | 22.7 | 14.6 | 32 | – | – | – | – | – | – | – | Activity (DU-145 [13]): inactive; inhibition (DU-145 [14]): inactive; inhibition (DU-145 [15]): inactive
2 | – | Oc1cc(O)cc(C#Cc2cc(O)cc(O)c2)c1 | 57 | 44.7 | 31.4 | 156 | 31.6 | 27.3 | 21.5 | 113 | 17 | 20.1 | 16.8 | 66.9 | 1.6 | 4.7 | 1.7 | 1 | 1.8 | 2.3 | 0.7 | selectivity ratio at 48 h [24]: 0.5; Ratio (DU-145 [25]): 5; Ratio (T-24 [26]): 1.1; Ratio (MDAH 2774 [27]): 0.9; Ratio [28]: 0.5; Selectivity Index [29]: 2.7; Selectivity Index [30]: 3.5; Selectivity Index [31]: 5; Selectivity Index [32]: 3.6; Selectivity Index [33]: 4.1; Selectivity Index [34]: 5.2; Selectivity Index [35]: 4; Selectivity Index [36]: 3.3; Selectivity Index [37]: 4
3 | 2.3 | Oc1ccc(C#Cc2ccc(O)cc2)cc1 | 46.7 | 82.6 | 21.5 | 299 | 12.6 | 31.1 | 10.5 | 194 | 5.6 | 8.5 | 3.1 | 153 | 2 | 2.5 | 1.7 | 0.5 | 4.6 | 2 | 2.2 | selectivity ratio at 48 h [24]: 0.3; Ratio (DU-145 [25]): 5; Ratio (T-24 [26]): 2.7; Ratio (MDAH 2774 [27]): 4.7; Ratio [28]: 0.2; Selectivity Index [29]: 6.4; Selectivity Index [30]: 3.6; Selectivity Index [31]: 13.9; Selectivity Index [32]: 15.4; Selectivity Index [33]: 6.2; Selectivity Index [34]: 18.5; Selectivity Index [35]: 27.3; Selectivity Index [36]: 18; Selectivity Index [37]: 49.3; Activity (DU-145 [13]): Active; inhibition (DU-145 [14]): Active; inhibition (DU-145 [15]): inactive
4 | 1.85 | Oc1ccc(C#Cc2cc(O)cc(O)c2)cc1 | 55.7 | 92.2 | 54.1 | 295 | 37.4 | 41.1 | 26.4 | 198 | 20.3 | 24.3 | 20.4 | 175 | 1.7 | 2.3 | 0.7 | 0.5 | 1.6 | 1.5 | 0.9 | selectivity ratio at 48 h [24]: 0.3; Ratio (DU-145 [25]): 1.4; Ratio (T-24 [26]): 1; Ratio (MDAH 2774 [27]): 0.7; Ratio [28]: 0.2; Selectivity Index [29]: 5.3; Selectivity Index [30]: 3.2; Selectivity Index [31]: 5.5; Selectivity Index [32]: 5.3; Selectivity Index [33]: 4.8; Selectivity Index [34]: 7.5; Selectivity Index [35]: 8.6; Selectivity Index [36]: 7.2; Selectivity Index [37]: 8.6
